Results: the supplement of paper PMC10307832

Experiments:
Assay in all cases: relative viability (nuclei count vs DMSO), 5 days (fraction); higher = more cells survive
[1] = compound: C[C@]1(O)C[C@@H](c2nc(-c3ccc4ccc(-c5ccccc5)nc4c3)c3c(N)nccn32)C1 [Linsitinib] + CC(=O)c1c(C)c2cnc(Nc3ccc(N4CCNCC4)cn3)nc2n(C2CCCC2)c1=O [Palbociclib] (partner 0.5 µM)
Method in brief: (§1)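 Values are medians from duplicate plates. Each reflects relative viability, defined as the nuclei count of treated wells over that of vehicle wells. Lung cancer cell lines in 1536-well plates were pin-tool dosed one day after seeding with one drug alone or with a fixed anchor-drug dose plus five library-drug doses (not always all listed) in √10 steps, then fixed, stained and imaged at 4× after 5 days.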

[2] = compound: Cc1ccc(C(=O)N(CCCN)[C@@H](c2nc3cc(Cl)ccc3c(=O)n2Cc2ccccc2)C(C)C)cc1 [Ispinesib] + CC1(C)CCC(c2ccc(Cl)cc2)=C(CN2CCN(c3ccc(C(=O)NS(=O)(=O)c4ccc(N[C@H](CCN5CCOCC5)CSc5ccccc5)c(S(=O)(=O)C(F)(F)F)c4)cc3)CC2)C1 [Navitoclax] (partner 0.5 µM)
Method in brief: as §1

[3] = compound: Cc1ccc(C(=O)N(CCCN)[C@@H](c2nc3cc(Cl)ccc3c(=O)n2Cc2ccccc2)C(C)C)cc1 [Ispinesib] + Cc1cc(Nc2cc(N3CCN(C)CC3)nc(Sc3ccc(NC(=O)C4CC4)cc3)n2)n[nH]1 [Tozasertib] (partner 0.1 µM)
Method in brief: as §1

Cell Line | relative viability ([1]; first compound 0.01 µM) | relative viability ([1]; first compound 0.03162 µM) | relative viability ([1]; first compound 0.1 µM) | relative viability ([1]; first compound 0.3162 µM) | relative viability ([1]; first compound 1 µM) | relative viability ([2]; first compound 0.001 µM) | relative viability ([2]; first compound 0.003162 µM) | relative viability ([2]; first compound 0.01 µM) | relative viability ([2]; first compound 0.03162 µM) | relative viability ([2]; first compound 0.1 µM) | relative viability ([3]; first compound 0.001 µM) | relative viability ([3]; first compound 0.003162 µM) | relative viability ([3]; first compound 0.01 µM) | relative viability ([3]; first compound 0.03162 µM) | relative viability ([3]; first compound 0.1 µM)
CAL-12T | 0.429 | 0.388 | 0.412 | 0.321 | 0.424 | 1.28 | 1.4 | 1.47 | 0.537 | 0.177 | 0.244 | 0.361 | 0.296 | 0.213 | 0.222
PC-14 | 0.513 | 0.46 | 0.521 | 0.429 | 0.507 | 1.13 | 1.14 | 1.22 | 0.43 | 0.104 | 0.662 | 0.669 | 0.624 | 0.433 | 0.0644
NCI-H1915 | 0.514 | 0.595 | 0.473 | 0.489 | 0.307 | 0.84 | 0.804 | 0.778 | 0.759 | 0.566 | 0.444 | 0.528 | 0.498 | 0.462 | 0.315
NCI-H647 | 0.377 | 0.459 | 0.32 | 0.171 | 0.322 | 1.22 | 0.978 | 1.41 | 0.461 | 0.0986 | 0.323 | 0.201 | 0.0519 | 0.217 | 0.303
NCI-H322M | 0.475 | 0.521 | 0.492 | 0.478 | 0.463 | 1.2 | 1.13 | 1.15 | 1.14 | 1.15 | 0.531 | 0.275 | 0.445 | 0.333 | 0.396
NCI-H2170 | 0.386 | 0.4 | 0.381 | – | 0.412 | 0.617 | 0.61 | 0.624 | 0.324 | 0.258 | 0.741 | 0.689 | 0.848 | 0.556 | 0.41
BEN | 0.487 | 0.422 | 0.45 | 0.361 | 0.468 | 0.0635 | 0.0753 | 0.0591 | 0.0599 | 0.053 | 0.508 | 0.464 | 0.548 | 0.633 | 0.574
NCI-H2009 | 0.119 | 0.203 | 0.19 | 0.105 | 0.24 | 1.28 | 1.23 | 1.32 | 0.678 | 0.374 | 0.788 | 0.837 | 0.786 | 0.706 | 0.489
LC-2-ad | 0.412 | 0.392 | 0.483 | 0.433 | 0.423 | 0.391 | 0.487 | 0.474 | 0.171 | 0.122 | 0.42 | 0.52 | 0.384 | 0.322 | 0.241
NCI-H1437 | 0.291 | 0.33 | 0.321 | 0.276 | 0.346 | 1.28 | 1.1 | 1.43 | 1.06 | 0.295 | 0.449 | 0.442 | 0.434 | 0.378 | 0.272
NCI-H3122 | 0.202 | 0.222 | 0.17 | – | 0.216 | 1.1 | 1.06 | 1.06 | 1.07 | 0.199 | 0.408 | 0.402 | 0.462 | 0.212 | 0.17
NCI-H727 | 0.708 | 0.719 | 0.63 | 0.553 | 0.554 | – | 0.519 | 0.507 | 0.387 | 0.26 | 0.598 | 0.556 | 0.647 | 0.621 | 0.668
NCI-H1734 | 0.338 | 0.394 | 0.334 | 0.313 | 0.31 | 0.868 | 0.952 | 1.04 | 0.777 | 0.549 | 0.258 | 0.121 | 0.25 | 0.254 | 0.218
HCC-15 | 0.75 | 0.703 | 0.702 | 0.283 | 0.569 | 0.792 | 0.82 | 0.848 | 0.665 | 0.401 | 0.48 | 0.414 | 0.505 | 0.281 | 0.227
NCI-H2405 | 0.503 | 0.537 | 0.521 | 0.47 | 0.473 | 0.884 | 0.72 | 0.942 | 0.779 | 0.276 | 0.798 | 0.7 | 0.858 | 0.771 | 0.965
NCI-H1993 | 0.646 | 0.668 | 0.484 | 0.686 | 0.456 | 0.869 | 0.944 | 0.87 | 0.84 | 0.526 | 0.54 | 0.509 | 0.574 | 0.519 | 0.588

Cell Line | relative viability ([1]; first compound 0.01 µM) | relative viability ([1]; first compound 0.03162 µM) | relative viability ([1]; first compound 0.1 µM) | relative viability ([1]; first compound 0.3162 µM) | relative viability ([1]; first compound 1 µM) | relative viability ([2]; first compound 0.001 µM) | relative viability ([2]; first compound 0.003162 µM) | relative viability ([2]; first compound 0.01 µM) | relative viability ([2]; first compound 0.03162 µM) | relative viability ([2]; first compound 0.1 µM) | relative viability ([3]; first compound 0.001 µM) | relative viability ([3]; first compound 0.003162 µM) | relative viability ([3]; first compound 0.01 µM) | relative viability ([3]; first compound 0.03162 µM) | relative viability ([3]; first compound 0.1 µM)
NCI-H1650 | 0.399 | 0.299 | 0.305 | 0.246 | 0.253 | 1.33 | 1.32 | 1.23 | 0.258 | 0.25 | 0.382 | 0.364 | 0.397 | 0.139 | 0.257
NCI-H460 | 0.192 | 0.0289 | 0.184 | – | 0.142 | 1.43 | 1.33 | – | 0.785 | 0.0262 | 0.4 | 0.577 | 0.503 | 0.417 | 0.0671
NCI-H1651 | 0.543 | 0.525 | 0.494 | 0.486 | 0.489 | 1.28 | 1.13 | 1.3 | 0.991 | 0.213 | 0.692 | 0.776 | 0.968 | 0.824 | 0.234
NCI-H1975 | 0.571 | 0.588 | 0.517 | 0.429 | 0.39 | 1.16 | 1.25 | 1.27 | 1.14 | 0.186 | 0.964 | 0.956 | 0.795 | 0.557 | 0.215
NCI-H2126 | 0.345 | 0.365 | 0.347 | 0.352 | 0.334 | 0.844 | 0.862 | 0.861 | 0.842 | 0.818 | 0.813 | 0.913 | 0.944 | 0.644 | 0.449
201T | 0.357 | 0.371 | 0.374 | 0.364 | 0.374 | 1.23 | 1.17 | 1.19 | 1.17 | 1.08 | 0.919 | 0.979 | 0.998 | 0.999 | 0.587
HCC-78 | 0.45 | 0.539 | 0.458 | 0.525 | 0.501 | 0.706 | 0.851 | 0.85 | – | 0.657 | 0.444 | 0.426 | 0.521 | 0.449 | 0.407
SK-LU-1 | 0.436 | 0.303 | 0.394 | 0.391 | 0.384 | 0.955 | 0.794 | 1.23 | 0.415 | 0.164 | 0.393 | 0.335 | 0.31 | 0.288 | 0.289
H3255 | 0.309 | 0.341 | 0.313 | 0.321 | 0.299 | 0.562 | 0.541 | 0.46 | 0.344 | 0.217 | 0.599 | 0.767 | 0.717 | 0.601 | 0.614
LOU-NH91 | 0.513 | 0.539 | 0.484 | 0.529 | 0.549 | 0.647 | 0.71 | 0.64 | 0.407 | 0.333 | 0.677 | 0.638 | 0.76 | 0.584 | 0.347
NCI-H1666 | 0.626 | 0.565 | 0.656 | 0.526 | 0.604 | 0.987 | 0.876 | 0.945 | 0.527 | 0.25 | 0.56 | 0.601 | 0.613 | 0.542 | 0.454
SK-MES-1 | 0.325 | 0.297 | 0.323 | 0.296 | 0.324 | 1.47 | 1.2 | 1.14 | 0.922 | 0.227 | 0.983 | 1.03 | 0.949 | 0.217 | 0.215
NCI-H2023 | 0.4 | 0.245 | 0.37 | 0.256 | 0.26 | 1.07 | 1.09 | 1.1 | 0.837 | 0.21 | 0.378 | 0.399 | 0.378 | 0.211 | 0.202
COR-L 105 | 0.38 | 0.403 | 0.437 | 0.373 | 0.358 | 0.722 | 0.824 | 0.676 | 0.464 | 0.345 | 0.378 | 0.358 | 0.365 | 0.343 | 0.329
NCI-H838 | 0.23 | 0.207 | 0.17 | 0.19 | 0.162 | 1.33 | 1.23 | 1.37 | 0.994 | 0.25 | 0.275 | 0.285 | 0.284 | 0.287 | 0.257
SW 1573 | 0.428 | 0.358 | 0.333 | 0.259 | 0.33 | 1.22 | 1 | 1.21 | 0.915 | 0.17 | 0.18 | 0.19 | 0.174 | 0.194 | 0.131
